pIC50: −log10 of the molar value.
The compounds below were run on H2122 (assay: Cell viability dose-response, H2122). Conditions: Homo sapiens, NCI-H2122, 12-point dose-response starting at 50 micromolar, 3-fold increments, in duplicate; read-out: toxicity data, H2122.
Assay type: cell-based, human
Summary of the method: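 Cells plated at 15% confluence in RPMI-1640 with 5% FBS and 2 mM L-glutamine, treated with compound in a 12-point, 3-fold dilution series from 50 micromolar, in duplicate. ATP measured by Cell Titer Glo after 4 days; IC50 taken from the dose-response curve.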
`C#CCOc1ccc(C(=O)c2ccc(NC(=O)C(=O)NC(C)Cc3ccc(OC)cc3)cc2)cc1` (stereo not shown) [SW208217-1-A] was tested, and the pIC50 was ≤ 4.31. With `C#CCOc1ccc(C(=O)c2ccc(NC(=O)C(=O)NCC(C)c3ccc(OC)cc3)cc2)cc1` (stereo not shown) [SW208219-1-A] the pIC50 was ≤ 4.31. For `COc1ccc(CCNC(=O)NC(=O)c2ccc(C(=O)c3ccc(OC)cc3)cc2)cc1` [SW208220-1-A], the pIC50 was ≤ 4.31. `COc1ccc(CCNC(=O)NC(=O)c2ccc(C(=O)c3ccccc3)cc2)cc1` [SW208222-1-A] showed a pIC50 of 6.98. `COc1ccc(CCNC(=O)NC(=O)c2cccc(-c3ccc(OC)cc3)c2)cc1` [SW208386-1-A] was tested, and the pIC50 was ≤ 4.31. `COc1ccc(CCNC(=O)NC(=O)c2ccc(-c3ccc(OC)cc3)cc2)cc1` [SW208387-1-A] gave a pIC50 of 6.74. `COc1ccc(CCNC(=O)NC(=O)c2ccc(Br)cc2)cc1` [SW208388-1-A] was tested, and the pIC50 was 6.80. In the case of `COc1ccc(CCNC(=O)NC(=O)c2cccc(Br)c2)cc1` [SW208389-1-A], the pIC50 was ≤ 4.31. For `COC(=O)c1ccc(C(=O)NC(=O)NCCc2ccc(OC)cc2)cc1` [SW208390-1-A], the pIC50 was ≤ 4.31. For `COc1ccc(CCNC(=O)NC(=O)c2ccc(-c3cc4ccccc4c4ccccc34)cc2)cc1` [SW208391-1-A], the pIC50 was ≤ 4.31. In the case of `COc1ccc(CCNC(=O)NC(=O)c2cccc(-c3cccc(Cl)c3)c2)cc1` [SW208392-1-A], the pIC50 was 5.17. `COc1ccc(CCNC(=O)NC(=O)c2ccc(-c3ccccc3)cc2)cc1` [SW208393-1-A] was tested, and the pIC50 was 6.77. `COc1ccc(CCNC(=O)NC(=O)c2cccc(-c3ccccc3)c2)cc1` [SW208394-1-A] was tested, and the pIC50 was ≤ 4.31. `COc1ccc(CCNC(=O)NC(=O)c2ccc(C(=O)O)cc2)cc1` [SW208395-1-A] was tested, and the pIC50 was ≤ 4.31. `COc1ccc(CCNC(=O)NC(=O)c2cccc(-c3ccncc3)c2)cc1` [SW208396-1-A] was tested, and the pIC50 was 5.65. `COc1ccc(CCNC(=O)NC(=O)c2ccc(C(=O)N3CCCCC3)cc2)cc1` [SW208397-1-A] was tested, and the pIC50 was 5.64. Work on `COc1ccc(CCNC(=O)NC(=O)c2ccc(C(=O)Nc3ccccc3)cc2)cc1` [SW208398-1-A] yielded a pIC50 of 6.44. For `COc1ccc(CCNC(=O)NC(=O)c2cccc(C)c2)cc1` [SW208399-1-A], the pIC50 was ≤ 4.31. `COc1ccc(CCNC(=O)NC(=O)c2cccc(Cl)c2)cc1` [SW208400-1-A] was tested, and the pIC50 was ≤ 4.31. `COc1ccc(CCNC(=O)NC(=O)c2ccc(Cl)cc2)cc1` [SW208401-1-A] was tested, and the pIC50 was 6.82. `COc1ccc(CCNC(=O)NC(=O)c2ccc(OC)cc2)cc1` [SW208402-1-A] was tested, and the pIC50 was 5.99. Work on `COc1ccc(CCNC(=O)NC(=O)c2cccc(OC)c2)cc1` [SW208403-1-A] yielded a pIC50 of 5.96.

Same assay, conditions: Homo sapiens, NCI-H2122, Table 9, competitor; read-out: IC50 to H2122 cells
`COc1ccc(CCNC(=O)NC(=O)c2ccc(C(=O)c3ccc(OC)cc3)cc2)cc1` [SW208220-1-A] was tested, and the pIC50 was 6.10. With `COc1ccc(CCNC(=O)NC(=O)c2ccc(C(=O)c3ccccc3)cc2)cc1` [SW208222-1-A] the pIC50 was 6.85. `COc1ccc(CCNC(=O)NC(=O)c2ccc(-c3ccccc3)cc2)cc1` [SW208393-1-A] gave a pIC50 of 6.94. `COc1ccc(CCNC(=O)NC(=O)c2ccc(Cl)cc2)cc1` [SW208401-1-A] showed a pIC50 of 7.05.

The compounds below were run on H2009 (assay: Cell viability dose-response, H2009). Conditions: Homo sapiens, NCI-H2009; 12-point dose-response starting at 50 micromolar, 3-fold increments, in duplicate; read-out: toxicity data, H2009.
Assay type: cell-based, human
Description: (§1) FIG. 6A. […] Cell viability is plotted vs. compound concentration. Compound was added to cells plated at 15% confluence in 96-well plates in RPMI-1640 media supplemented with 5% Fetal Bovine Serum and 2 mM L-Glutamine. After 4 days of incubation, ATP levels were measured using Cell Titer Glo (Promega). Data are presented as the average of 2 replicates ±SEM.
(§2) Selectivity may be measured by the half maximal inhibitory concentration (IC50), which, as used herein, is a measure of the effectiveness of a compound in killing cells. This quantitative measure indicates how much of a particular compound is needed to kill a particular cell population by half (e.g., as indicated by the amount of ATP). […] The IC50 can be determined by constructing a dose-response curve. The lower the IC50, the higher the potency, and the greater the difference between IC50 values for different cell lines (e.g., sensitive lines vs. insensitive lines, and sensitive lines vs. normal lines) the greater the selectivity. […]
(§3) With this information, we synthesized and tested a series of small molecules derived in conception from the oxalamide and chromone scaffold including N-acyl ureas, as shown in Tables 6-8. Each compound was tested in a 12-point dose-response study starting at 50 micromolar and decreasing in 3-fold increments to sub-nanomolar concentrations, in duplicate. Additionally, one or more additional cell line was tested in the same way.
For `C#CCOc1ccc(C(=O)c2ccc(NC(=O)C(=O)NC(C)Cc3ccc(OC)cc3)cc2)cc1` (stereo not shown) [SW208217-1-A], the pIC50 was 4.91. In the case of `C#CCOc1ccc(C(=O)c2ccc(NC(=O)C(=O)NCC(C)c3ccc(OC)cc3)cc2)cc1` (stereo not shown) [SW208219-1-A], the pIC50 was ≤ 4.31. `COc1ccc(CCNC(=O)NC(=O)c2ccc(C(=O)c3ccc(OC)cc3)cc2)cc1` [SW208220-1-A] was tested, and the pIC50 was ≤ 4.31. `COc1ccc(CCNC(=O)NC(=O)c2ccc(C(=O)c3ccccc3)cc2)cc1` [SW208222-1-A] was tested, and the pIC50 was 4.32. With `COc1ccc(CCNC(=O)NC(=O)c2cccc(-c3ccc(OC)cc3)c2)cc1` [SW208386-1-A] the pIC50 was 4.88. For `COc1ccc(CCNC(=O)NC(=O)c2ccc(-c3ccc(OC)cc3)cc2)cc1` [SW208387-1-A], the pIC50 was ≤ 4.31. For `COc1ccc(CCNC(=O)NC(=O)c2ccc(Br)cc2)cc1` [SW208388-1-A], the pIC50 was ≤ 4.31. For `COc1ccc(CCNC(=O)NC(=O)c2cccc(Br)c2)cc1` [SW208389-1-A], the pIC50 was 4.45. `COC(=O)c1ccc(C(=O)NC(=O)NCCc2ccc(OC)cc2)cc1` [SW208390-1-A] was tested, and the pIC50 was ≤ 4.31. In the case of `COc1ccc(CCNC(=O)NC(=O)c2ccc(-c3cc4ccccc4c4ccccc34)cc2)cc1` [SW208391-1-A], the pIC50 was 5.15. `COc1ccc(CCNC(=O)NC(=O)c2cccc(-c3cccc(Cl)c3)c2)cc1` [SW208392-1-A] was tested, and the pIC50 was ≤ 4.31. For `COc1ccc(CCNC(=O)NC(=O)c2ccc(-c3ccccc3)cc2)cc1` [SW208393-1-A], the pIC50 was ≤ 4.31. In the case of `COc1ccc(CCNC(=O)NC(=O)c2cccc(-c3ccccc3)c2)cc1` [SW208394-1-A], the pIC50 was ≤ 4.31. With `COc1ccc(CCNC(=O)NC(=O)c2ccc(C(=O)O)cc2)cc1` [SW208395-1-A] the pIC50 was ≤ 4.31. With `COc1ccc(CCNC(=O)NC(=O)c2cccc(-c3ccncc3)c2)cc1` [SW208396-1-A] the pIC50 was 5.31. With `COc1ccc(CCNC(=O)NC(=O)c2ccc(C(=O)N3CCCCC3)cc2)cc1` [SW208397-1-A] the pIC50 was 4.78. Work on `COc1ccc(CCNC(=O)NC(=O)c2ccc(C(=O)Nc3ccccc3)cc2)cc1` [SW208398-1-A] yielded a pIC50 of 4.78. `COc1ccc(CCNC(=O)NC(=O)c2cccc(C)c2)cc1` [SW208399-1-A] gave a pIC50 of 4.78. In the case of `COc1ccc(CCNC(=O)NC(=O)c2cccc(Cl)c2)cc1` [SW208400-1-A], the pIC50 was ≤ 4.31. In the case of `COc1ccc(CCNC(=O)NC(=O)c2ccc(Cl)cc2)cc1` [SW208401-1-A], the pIC50 was ≤ 4.31. For `COc1ccc(CCNC(=O)NC(=O)c2ccc(OC)cc2)cc1` [SW208402-1-A], the pIC50 was ≤ 4.31. Compound `COc1ccc(CCNC(=O)NC(=O)c2cccc(OC)c2)cc1` [SW208403-1-A] has a pIC50 of 4.37.

These compounds were tested on HCC44 (assay: Cell viability dose-response, HCC44). Conditions: Homo sapiens, HCC44, 12-point dose-response starting at 50 micromolar, 3-fold increments, in duplicate; read-out: toxicity data, HCC44.
Assay type: cell-based, human
Description: as §1, §2, §3
For `C#CCOc1ccc(C(=O)c2ccc(NC(=O)C(=O)NC(C)Cc3ccc(OC)cc3)cc2)cc1` (stereo not shown) [SW208217-1-A], the pIC50 was ≤ 4.31. For `C#CCOc1ccc(C(=O)c2ccc(NC(=O)C(=O)NCC(C)c3ccc(OC)cc3)cc2)cc1` (stereo not shown) [SW208219-1-A], the pIC50 was ≤ 4.31. For `COc1ccc(CCNC(=O)NC(=O)c2ccc(C(=O)c3ccc(OC)cc3)cc2)cc1` [SW208220-1-A], the pIC50 was ≤ 4.31. `COc1ccc(CCNC(=O)NC(=O)c2ccc(C(=O)c3ccccc3)cc2)cc1` [SW208222-1-A] showed a pIC50 of 6.62. For `COc1ccc(CCNC(=O)NC(=O)c2cccc(-c3ccc(OC)cc3)c2)cc1` [SW208386-1-A], the pIC50 was ≤ 4.31. `COc1ccc(CCNC(=O)NC(=O)c2ccc(-c3ccc(OC)cc3)cc2)cc1` [SW208387-1-A] showed a pIC50 of 6.60. For `COc1ccc(CCNC(=O)NC(=O)c2ccc(Br)cc2)cc1` [SW208388-1-A], the pIC50 was 6.38. With `COc1ccc(CCNC(=O)NC(=O)c2cccc(Br)c2)cc1` [SW208389-1-A] the pIC50 was ≤ 4.31. `COC(=O)c1ccc(C(=O)NC(=O)NCCc2ccc(OC)cc2)cc1` [SW208390-1-A] was tested, and the pIC50 was ≤ 4.31. `COc1ccc(CCNC(=O)NC(=O)c2ccc(-c3cc4ccccc4c4ccccc34)cc2)cc1` [SW208391-1-A] was tested, and the pIC50 was ≤ 4.31. With `COc1ccc(CCNC(=O)NC(=O)c2cccc(-c3cccc(Cl)c3)c2)cc1` [SW208392-1-A] the pIC50 was ≤ 4.31. With `COc1ccc(CCNC(=O)NC(=O)c2ccc(-c3ccccc3)cc2)cc1` [SW208393-1-A] the pIC50 was ≤ 4.31. `COc1ccc(CCNC(=O)NC(=O)c2cccc(-c3ccccc3)c2)cc1` [SW208394-1-A] was tested, and the pIC50 was ≤ 4.31. With `COc1ccc(CCNC(=O)NC(=O)c2ccc(C(=O)O)cc2)cc1` [SW208395-1-A] the pIC50 was ≤ 4.31. With `COc1ccc(CCNC(=O)NC(=O)c2cccc(-c3ccncc3)c2)cc1` [SW208396-1-A] the pIC50 was ≤ 4.31. With `COc1ccc(CCNC(=O)NC(=O)c2ccc(C(=O)N3CCCCC3)cc2)cc1` [SW208397-1-A] the pIC50 was ≤ 4.31. `COc1ccc(CCNC(=O)NC(=O)c2ccc(C(=O)Nc3ccccc3)cc2)cc1` [SW208398-1-A] was tested, and the pIC50 was ≤ 4.31. With `COc1ccc(CCNC(=O)NC(=O)c2cccc(C)c2)cc1` [SW208399-1-A] the pIC50 was ≤ 4.31. `COc1ccc(CCNC(=O)NC(=O)c2cccc(Cl)c2)cc1` [SW208400-1-A] was tested, and the pIC50 was ≤ 4.31. In the case of `COc1ccc(CCNC(=O)NC(=O)c2ccc(Cl)cc2)cc1` [SW208401-1-A], the pIC50 was 6.27. `COc1ccc(CCNC(=O)NC(=O)c2ccc(OC)cc2)cc1` [SW208402-1-A] was tested, and the pIC50 was ≤ 4.31. In the case of `COc1ccc(CCNC(=O)NC(=O)c2cccc(OC)c2)cc1` [SW208403-1-A], the pIC50 was ≤ 4.31.
